Where two headings read alike, the source gives them in different places.
Tests used:
Type in all cases: cell-based, human
HBEC30KT = assay: Cell viability (ATP, Cell Titer Glo, 4 days), HBEC30KT; conditions: Homo sapiens, Tables 3 and 4; read-out: HBEC30KT IC50
Procedure: (§1) FIG. 6A. […] Cell viability is plotted vs. compound concentration. Compound was added to cells plated at 15% confluence in 96-well plates in RPMI-1640 media supplemented with 5% Fetal Bovine Serum and 2 mM L-Glutamine. After 4 days of incubation, ATP levels were measured using Cell Titer Glo (Promega). Data are presented as the average of 2 replicates ±SEM.
(§2) Selectivity may be measured by the half maximal inhibitory concentration (IC50), which, as used herein, is a measure of the effectiveness of a compound in killing cells. This quantitative measure indicates how much of a particular compound is needed to kill a particular cell population by half (e.g., as indicated by the amount of ATP). […] The IC50 can be determined by constructing a dose-response curve. The lower the IC50, the higher the potency, and the greater the difference between IC50 values for different cell lines (e.g., sensitive lines vs. insensitive lines, and sensitive lines vs. normal lines) the greater the selectivity. […]

H1819 = assay: Cell viability dose-response, H1819; conditions: Homo sapiens, NCI-H1819, Tables 3 and 4; read-out: IC50 (uM) vs indicated non-small cell lung cancer cell line H1819
Method in brief: (§3)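 Viability read as total ATP (Cell Titer Glo) following 4 days' compound exposure, with IC50 derived from dose-response curves. Duplicate 12-point series, top concentration 50 micromolar with 3-fold steps, on cells seeded at 15% confluence in RPMI-1640, 5% FBS, 2 mM L-glutamine.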

H2073 = assay: Cell viability dose-response, H2073; conditions: Homo sapiens, NCI-H2073, Tables 3 and 4; read-out: IC50 (uM) vs indicated non-small cell lung cancer cell line H2073
Procedure: as §1, §2
(§4) With this information, we synthesized and tested a series of small molecules derived in conception from the oxalamide and chromone scaffold including N-acyl ureas, as shown in Tables 6-8. Each compound was tested in a 12-point dose-response study starting at 50 micromolar and decreasing in 3-fold increments to sub-nanomolar concentrations, in duplicate. Additionally, one or more additional cell line was tested in the same way.

H2122 = assay: Cell viability dose-response, H2122; conditions: read-out: IC50 (uM) vs indicated non-small cell lung cancer cell line H2122
Method in brief: as §3

H2009 = assay: Cell viability dose-response, H2009; conditions: Homo sapiens, NCI-H2009; Tables 3 and 4; read-out: IC50 (uM) vs indicated non-small cell lung cancer cell line H2009
Method in brief: (§5)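 Steps: seed cells to 15% confluence in RPMI-1640 supplemented with 5% fetal bovine serum and 2 mM glutamine; add compound across a concentration range; incubate 4 days; measure total ATP with CellTiter-Glo. IC50 is derived from the curve.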

HCC4017 = assay: Cell viability dose-response, HCC4017; conditions: read-out: IC50 (uM) vs indicated non-small cell lung cancer cell line HCC4017
Procedure: as §1, §2, §4

HCC44 = assay: Cell viability dose-response, HCC44; conditions: read-out: IC50 (uM) vs indicated non-small cell lung cancer cell line HCC44
Method in brief: as §5

[1] = Homo sapiens, NCI-H2122, Tables 3 and 4
[2] = Homo sapiens, HCC4017, Tables 3 and 4
[3] = Homo sapiens, HCC44, Tables 3 and 4

With COc1ccc2nc(NC(=O)c3ccc(Br)cc3)sc2c1 [SW000931] the IC50 (HBEC30KT) was 360 µM, the IC50 (H1819) was 308 µM and the IC50 (H2073) was 2.33 µM. The IC50 (H2122; [1]) was 2.62 µM.

For COc1ccc(C(=O)Nc2nc3ccccc3s2)cc1 [SW003087], the IC50 (HBEC30KT) was 100 µM, the IC50 (H1819) was 37.4 µM and the IC50 (H2009) was 31.3 µM. It also gave an IC50 (H2073) of 11.7 µM and an IC50 (H2122; [1]) of 2.62 µM.

For COC(=O)c1ccc(C(=O)Nc2nc3cc(N)ccc3s2)cc1 [SW004400], the IC50 (HBEC30KT) was 74.3 µM, the IC50 (H1819) was 54.6 µM and the IC50 (H2009) was 77.5 µM. For the same compound, the IC50 (H2073) was 182 µM and the IC50 (H2122; [1]) was 297 µM.

For O=C(Nc1ccc(F)cc1)c1sc2ccccc2c1Cl [SW006505], the IC50 (HBEC30KT) was 63.9 µM, the IC50 (H2122; [1]) was 1.7 µM and the IC50 (HCC4017; [2]) was 262 µM. For the same compound, the IC50 (HCC44; [3]) was 0.657 µM.

In the case of COc1ccc2nc(NC(=O)c3ccc(F)cc3)sc2c1 [SW008027], the IC50 (HBEC30KT) is reported as 32.2 µM, the IC50 (H1819) is reported as 67.3 µM and the IC50 (H2009) is reported as 24.6 µM. The IC50 (H2073) was 5.1 µM and the IC50 (H2122; [1]) was 0.899 µM.

Work on O=C(Nc1cccc(NC(=O)c2sc3ccccc3c2Cl)c1)c1ccco1 [SW023008-2] yielded an IC50 (HBEC30KT) of 82.5 µM, an IC50 (H2122; [1]) of 1.27 µM and an IC50 (HCC4017; [2]) of 809 µM. It also gave an IC50 (HCC44; [3]) of 105 µM.

O=C(Nc1cccc(NC(=O)c2sc3ccccc3c2Cl)c1)c1cccc(Cl)c1 [SW023441-2] was tested, and the IC50 (HBEC30KT) was 31.8 µM, the IC50 (H2122; Tables 3 and 4) was 0.473 µM and the IC50 (HCC4017; Tables 3 and 4) was 46 µM. The IC50 (HCC44; Tables 3 and 4) was 27.7 µM.

NC(=O)c1ccccc1NC(=O)c1sc2ccccc2c1Cl [SW119800] was tested, and the IC50 (HBEC30KT) was 85.4 µM, the IC50 (H2122; [1]) was 2.66 µM and the IC50 (HCC4017; [2]) was 467 µM. The IC50 (HCC44; [3]) was 206 µM.

In the case of O=C(O)c1sc2ccccc2c1Cl [SW138238], the IC50 (HBEC30KT) is reported as 4950 µM, the IC50 (H1819) is reported as 1170 µM and the IC50 (H2009) is reported as 179 µM.

With O=C(Nc1ccc(NC(=O)c2sc3ccccc3c2Cl)cc1)c1ccco1 [SW163400] the IC50 (HBEC30KT) was 69.3 µM, the IC50 (H2122; [1]) was 0.897 µM and the IC50 (HCC44; [3]) was 723 µM.

COc1ccc2nc(NS(=O)(=O)c3ccc([N+](=O)[O-])cc3)sc2c1 [SW166933] was tested, and the IC50 (HBEC30KT) was 4950 µM, the IC50 (H1819) was 55.2 µM and the IC50 (H2073) was 55.4 µM. It also gave an IC50 (H2122; [1]) of 490 µM.

O=C(Nc1ccccc1N1CCCC1)c1sc2ccccc2c1Cl [SW174698] was tested, and the IC50 (HBEC30KT) was 4950 µM, the IC50 (H2122; [1]) was 5.12 µM and the IC50 (HCC4017; [2]) was 403 µM. For the same compound, the IC50 (HCC44; [3]) was 3.06 µM.

Cc1ccc(NC(=O)c2sc3ccccc3c2Cl)c(F)c1 [SW202551] was tested, and the IC50 (H2122; [1]) was 1.36 µM, the IC50 (HCC4017; [2]) was 390 µM and the IC50 (HCC44; [3]) was 1.42 µM.

With COc1ccc(C(=O)Nc2nc3cc(N)ccc3s2)cc1 [SW202739] the IC50 (HBEC30KT) was 250 µM, the IC50 (H1819) was 132 µM and the IC50 (H2009) was 137 µM. It also gave an IC50 (H2073) of 126 µM and an IC50 (H2122; [1]) of 114 µM.

With Cc1cc2sc(N)nc2cc1[N+](=O)[O-] [SW202740] the IC50 (HBEC30KT) was 129 µM, the IC50 (H1819) was 82.5 µM and the IC50 (H2009) was 111 µM. For the same compound, the IC50 (H2073) was 114 µM.

With Nc1ccc2sc(NC(=O)c3ccccc3)nc2c1 [SW202741] the IC50 (HBEC30KT) was 13 µM, the IC50 (H1819) was 11.9 µM and the IC50 (H2009) was 8.42 µM. It also gave an IC50 (H2073) of 9.79 µM and an IC50 (H2122; [1]) of 8.13 µM.

COc1ccc2nc(NC(=O)c3ccccc3)sc2c1 [SW202743] was tested, and the IC50 (HBEC30KT) was 22.3 µM, the IC50 (H1819) was 19.8 µM and the IC50 (H2009) was 20.6 µM. The IC50 (H2073) was 7.04 µM and the IC50 (H2122; [1]) was 0.538 µM.

Work on COc1ccc2nc(NC(=O)c3cccc(C)c3)sc2c1 [SW202744] yielded an IC50 (HBEC30KT) of 36.2 µM, an IC50 (H1819) of 53.5 µM and an IC50 (H2009) of 24.8 µM. For the same compound, the IC50 (H2073) was 25.6 µM and the IC50 (H2122; [1]) was 1.16 µM.

COc1ccc(C(=O)Nc2nc3ccc(OC)cc3s2)cc1 [SW202745] gave an IC50 (HBEC30KT) of 336 µM, an IC50 (H1819) of 64.3 µM and an IC50 (H2073) of 2.12 µM. It also gave an IC50 (H2122; [1]) of 1.09 µM.

For COc1cccc(C(=O)Nc2nc3ccc(OC)cc3s2)c1 [SW202747], the IC50 (HBEC30KT) was 29.5 µM, the IC50 (H1819) was 20.5 µM and the IC50 (H2009) was 21.2 µM. The IC50 (H2073) was 10.3 µM and the IC50 (H2122; [1]) was 0.306 µM.

COc1ccc2nc(NC(=O)Cc3ccccc3)sc2c1 [SW202749] was tested, and the IC50 (HBEC30KT) was 234 µM, the IC50 (H1819) was 57.6 µM and the IC50 (H2009) was 75.2 µM. It also gave an IC50 (H2073) of 70.4 µM and an IC50 (H2122; [1]) of 60.4 µM.

Compound COc1ccc2nc(NS(=O)(=O)c3ccccc3)sc2c1 [SW202750] has an IC50 (HBEC30KT) of 127 µM, an IC50 (H1819) of 144 µM and an IC50 (H2073) of 97.6 µM.

— US9789096B2, “Methods and compositions for selective and targeted cancer therapy” (Board of Regents of the University of Texas System, priority 2013, dated 2017)
